Experimental data reported in patent US7572444B2, “Binding proteins specific for human matriptase” (Amgen Fremont Inc., priority 2004, dated 2009).

Tests used:
[1] = test system: unknown protease present in the B cell culture supernatant; test: QAR-MCA cleavage by unknown protease of B cell culture supernatant; type: biochemical; conditions: QAR-MCA substrate
Source text: (§1) The development of the assay method was complicated by the finding that an unknown protease was present in the B cell culture supernatant that was able to cleave the QAR-MCA substrate. […] This was advantageous as the background cleavage would no longer affect the ability to identify neutralizing antibodies against Matriptase. The supernatant also contained an unknown Matriptase inhibitor that necessitated a relatively high Matriptase concentration in the assay.

[2] = target: T1, catalytic domain of Matriptase (Homo sapiens, UniProt Q9Y5Y6); test: Enzymatic assay with tripeptide QAR-MCA substrate (Tripeptide-MCA assay); type: biochemical; conditions: at the concentration that inhibits the unknown protease
T1 sequence (Q9Y5Y6 615-855): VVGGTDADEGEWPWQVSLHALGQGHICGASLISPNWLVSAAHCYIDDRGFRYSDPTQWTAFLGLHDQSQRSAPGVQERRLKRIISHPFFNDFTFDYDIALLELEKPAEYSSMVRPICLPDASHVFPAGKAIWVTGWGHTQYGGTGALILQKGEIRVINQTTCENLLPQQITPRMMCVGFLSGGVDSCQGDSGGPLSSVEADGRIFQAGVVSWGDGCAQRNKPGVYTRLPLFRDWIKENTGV
Method: All 972 wells were then analyzed in an enzymatic assay using the catalytic domain of Matriptase and the tripeptide QAR-MCA (Peptides International Inc., Louisville, Ky.) as substrate. The cleavage of the QAR-MCA substrate by Matriptase causes the release of a methylcoumarin amide group (MCA) as amino-methyl coumarin (AMC). The free AMC can then be detected using a fluorescent reader as a measure of Matriptase activity.
as §1
The wells were determined to be positive based on their ability to inhibit Matriptase activity in two assays compared with average of the irrelevant control wells (enzyme, substrate and B cell culture supernatant) shown below. The data is shown as a percentage of the average of the negative control wells (enzyme and substrate) as in Table 3.

Raji cells = test: ADCC assay; type: cell-based, human; conditions: 0.0001 to 1 μg/ml, NK effector cells, 4 hours
Method: Raji cells were used as target cells for the ADCC assay. To prepare the target cells, Raji cells were harvested and resuspended in media at 1.0×10^6 cells/ml. Calcein (Sigma C1359) was then added to a final concentration of 10 μM, and the cells were incubated for 45-60 minutes at 37° C., after which the Raji cells were pelleted by centrifugation at 1200 rpm for 10 minutes. The supernatant was discarded and the cells were resuspended in growth media. The centrifugation step was repeated, the cells were resuspended at a concentration of 1.0×10^4 cells in 75μL media and were then plated at 1.0×10^4 cells per well in a round bottom plate. […] The cells and antibody were incubated for 30 minutes at room temperature.
The effector cells for the ADCC assay were prepared as follows. […] The cells were counted to determine the concentration of natural killer (NK) cells, diluted to a concentration of 9.0×10^4 cells per 75 μL, and then 75 μL of these cells were then added to the Raji cells from the step above and then incubated for 4 hours at 37° C. The plate was then centrifuged at 1200 rpm for 5 minutes, and 100 μL of the supernatant was transferred to a flat, black clear-bottom 96 well plate and subsequently read on a Victor plate reader using a 490 nm excitation and 530 nm emission wavelength.

[3] = test system: Ramos tumor-bearing SCID mice; test: Ramos hind-limb paralysis model; type: in vivo; conditions: 5 mg/kg, d1, i.p., 1×10^6 Ramos cells i.v.
Method: The ability of sc95/96 to modulate the invasive and/or metastatic properties of Ramos cells was evaluated in a rodent hind-limb paralysis model. Without therapeutic intervention, SCID mice inoculated systemically with Ramos B lymphoma cells develop hind limb paralysis at ˜25 days post injection, presumably related to the accumulation of tumor cells in the spinal cord and/or brain tissues (dijoseph et al., 2004, Clinical Cancer Research 10: 8620-8629).
In this experiment, 7-8 week old C.B-17 SCID male mice were inoculated with 1×10^6 Ramos cells via tail vein injection. […] Groups 1-3 thereafter received weekly 25 mg/kg injections of antibody or an equivalent volume of PBS. Animals were given food and water ad libidum and monitored daily for signs of paralysis. Individual mice were euthanized when unable to move due to hind limb paralysis.

Ramos cells = test: CDC assay; type: cell-based; conditions: 10, 5, 2.5 and 1.25 μg/mL, 25% human sera, 1 hour; sc95/96 as IgG1 or IgG2
Method: In this experiment, 100,000 Ramos cells in 25 μL of media were added to the bottom of a 96-well plate. […] Each sample point was run in quadruplicate. After 10 minutes at room temperature, 50 μL of 50% human sera (25% final concentration) was added to the cells and incubated at 37 degrees Celsius for 1 hour. CellTiterGlo reagent (100 μL) was added to each well and allowed to incubate on the cells for 10 minutes.

Molecule	inhibition of activity of the unknown protease [1]	effect on activity of Matriptase [2]	Raji cell lysis by ADCC (Raji cells)	Median survival time [3]	CDC on Ramos cells (Ramos cells)
O=S(=O)(F)Cc1ccccc1 [PMSF, phenylmethyl sulfonyl fluoride]	completely inhibit	without affecting the activity of Matriptase			
Rituximab [reference compound]			induce Raji cell lysis by ADCC	greater than 45 days	did demonstrate CDC activity
